Test results reported in patent publication US20090208620A1, “Alimentary Compositions and Methods For Metabolic Modulation” (VDF FUTURECEUTICALS, INC., priority 2003, published 2009).
“And” between values parts separate entries of the source, which are not always exact repeats. Equal entries are not always repeated.

Legend:
activated AMPK = experiment: Western immunoblot for activated (phospho-Thr172) AMPK in muscle cells; type: cell-based, mouse; conditions: cells treated 30 minutes at 37° C
Description: (§1) The levels of Glut-4, activated AMPK and activated Akt were measured in mouse muscle cells C2C12 (from ATTC) and in primary culture of human skeletal muscle cells (Clonetics, Inc.) using Western immunoblotting. C2C12 cells were plated at 1.5×1-exp5 cells per mL/well (12-well plate) in standard cell culture medium (DMEM supplemented with 10% fetal bovine serum (FBS), 25 mM glucose, 20 mM Hepes, 4 mM glutamine and 2 mM sodium pyruvate. 48 hrs after the plating, medium was changed to differentiation medium (DMEM supplemented with 5 mM of glucose and 0.5% of FBS) for next 3-4 days to stimulate the formation of myotubes. Three hours before the treatment with selected agents, cells were washed with PBS and transferred to PBS supplemented with 5 mM of glucose.
(§2) Human skeletal muscle cells (HSKM) were cultured in SKBM-2 mediums provided by Clonetics. 48 hrs after cell plating, medium was changed to SKBM medium to stimulate differentiation of the cells to myotubes. When differentiated, the myotubes were transferred to PBS supplemented with 5 mM glucose for three hrs before the treatment.
(§3) Analysis of C2C12 cells for the level of activated AMPK, Akt and the level of GLUT-4 was performed in the same experimental system. The cells were treated for 30 minutes at 37° C. […] Subsequently, 20 μg per sample of sample protein was used for Western analysis using NuPage 10% Bis/Tris gels (Invitrogen). After exposure of membranes to primary and secondary antibodies AMPK, AKT or Glut-4 was detected using ECL-Plus (Amersham) following producer's instruction. Chemilumiscent signals were detected by using ChemiDoc system from Biorad. Intensity of detected signals were analyzed and measured using Quantity One software (Biorad). Alternatively, the level of phosphorylated AMPK was detected using ECL kit from Amersham and short exposure to Kodak films.
(§4) Experimental setup: Cell Culture was followed by treatment with selected contemplated compounds, which was followed by cell lysis and western blot analysis for AMPK, Akt, GLUT4, total AMPK, and total Akt. Signals were acquired accordingly.

[1] = Oral availability and serum level of DHZ by ELISA; type: in vivo, C57/B1 mice; conditions: 100 microgram/dose, mice; for concentration at 0 minutes / concentration at 15 minutes / concentration at 30 minutes / concentration at 60 minutes / concentration at 120 minutes: C57/B1, mouse, serum
Description: C57/B1 mice were treated with 100 microgram/dose of dihydrozeatin (DHZ) for 0, 15, 30, 60 and 120 minutes following oral or i.p. administration. Serum level of DHZ in pg/ml was measured using DHZ Elisa following procedures as enclosed in a commercially available test kit (e.g., dihydrozeatin competitive ELISA test system for plant growth hormone detection, Agdia, Elkhard, Ind.).

[2] = test system: rat epitrochlearis muscle; experiment: Glucose uptake in rat epitrochlearis muscle; type: cell-based; design: unit not given here; conditions: 60 minute incubation at 37 C, 10 minute transport at 30 C; for Glucose uptake, Raw: single values, listed as K
Description: Glucose uptake in rat epitrochlearis muscle was determined following a protocol substantially as described by Brozinick, J. T., and Birnbaum, M. J. (1998) J. Biol. Chem. 273(24), […]. Results are listed in Tables 5 and 6, wherein data of Table 5 were obtained for 60 minute incubations (at 37 C), 10 minute transport at (30 C) and data of Table 6 were obtained for 60 minute incubations (at 37 C), 10 minute transport at (30 C) of the compounds as indicated (K is kinetin, AG is N2-acetylguanine).

activated Akt = experiment: Western immunoblot for activated (phospho-Ser473) Akt in muscle cells; type: cell-based, mouse; conditions: cells treated 30 minutes at 37° C
Description: as §1, §2, §3, §4

GLUT-4 = experiment: Western immunoblot for GLUT-4 protein level in C2C12 cells; type: cell-based, mouse
Description: as §1
Analysis of C2C12 cells for the level of activated AMPK, Akt and the level of GLUT-4 was performed in the same experimental system. The cells were treated for 30 minutes at 37° C. After the treatment, the cells were washed with ice-cold PBS and lysed with 80 μl of lysis buffer/well (M-PER buffer from Pierce supplemented with protease and phosphatase inhibitor mix (Calbiochem) for 10 minutes on ice. Next, the plates were transferred to −20° C. to improve the lysis of the cells. Next cells were sonicated for 5 minutes and lysate was transferred to Eppendorf tubes and centrifuged at 14,000 rpm for 10 minutes. Supernatants were collected in fresh Eppendorf tubes and kept on ice to measure the amount of total proteins. 3 μl of each lysate was used to measure the protein concentration using standard Bradford method (Biorad). Subsequently, 20 μg per sample of sample protein was used for Western analysis using NuPage 10% Bis/Tris gels (Invitrogen). After exposure of membranes to primary and secondary antibodies AMPK, AKT or Glut-4 was detected using ECL-Plus (Amersham) following producer's instruction. Chemilumiscent signals were detected by using ChemiDoc system from Biorad. Intensity of detected signals were analyzed and measured using Quantity One software (Biorad). Alternatively, the level of phosphorylated AMPK was detected using ECL kit from Amersham and short exposure to Kodak films.
Experimental setup: Cell Culture was followed by treatment with selected contemplated compounds, which was followed by cell lysis and western blot analysis for AMPK, Akt, GLUT4, total AMPK, and total Akt. Signals were acquired accordingly. Primary antibodies used in these studies are the following: Anti-phospho-AMPK (Thr172), mouse, rabbit IgG, from Cell Signaling, #2531; Anti-phospho-Akt (Ser473), mouse, rabbit IgG, Cell Signaling, #9271; Anti-Glut-4, mouse, rabbit IgG, Calbiochem, #400064; Anti-AMPK (total), mouse, rabbit IgG, Cell Signaling, #2532; Anti-Akt (total), mouse, rabbit IgG, Cell Signaling, #9272.
The effects of kinetin, N^2-Acetyl-Guanosine and N^2-Acetyl-Guanine on GLUT-4 protein level in C2C12 cells were investigated following the same experimental design as described for AMPK and AKT. Anti-Glut-4 antibody used in this study was from Calbiochem. […] Table 3 refers to multiple independent experiments where multiple identical concentrations for the same reagents are indicated.

muscle cells = experiment: Total glucose uptake in vitro with fluorescent glucose analog; type: cell-based; conditions: for AVERAGE (N = 3) fluorescence of fluorescent glucose in the cells / FOLD CHANGE IN TOTAL GLUCOSE UPTAKE (OVER CONTROL): 30 minutes at 37 C
Description: Total glucose uptake was measured using fluorescent glucose analog from Molecular Probes. Briefly, muscle cells were treated with kinetin, N^2-Acetyl-Guanosine and N^2-Acetyl-Guanine for 30 minutes at 37 C first and subsequently, these cells were exposed to 500 μM of fluorescent glucose analog for 5 minutes at room temperature. Next, cells were washed twice with cold Krebs-Hepes buffered solution and fixed in 70% ethanol in water. Fluorescence of fluorescent glucose in the cells was measured using fluorescent plate reader at 480/530 nm (excitation/emission). […] Table 4 refers to multiple independent experiments where multiple identical concentrations for the same reagents are indicated.

[3] = concentration 0.15 (unit not given)
[4] = concentration 0.3 (unit not given)
[5] = concentration 0.75 (unit not given)
[6] = concentration 1.5 (unit not given)
[7] = concentration 3.75 (unit not given)
[8] = concentration 7.5 (unit not given)

Structure (SMILES): CC(CO)CCNc1ncnc2nc[nH]c12 (stereo not drawn) [Dihydro-Zeatin, dihydrozeatin]
- FOLD AMPK ACTIVATION (OVER CONTROL) (activated AMPK; 0.5 microM): 2.25 fold
- FOLD AMPK ACTIVATION (OVER CONTROL) (activated AMPK; 5.0 microM): 0.59 fold
- FOLD AMPK ACTIVATION (OVER CONTROL) (activated AMPK; 50.0 microM): 0.88 fold
- concentration at 0 minutes ([1]; ip): 0.3 ng/mL
- concentration at 15 minutes ([1]; ip): 1.15 ng/mL
- concentration at 30 minutes ([1]; ip): 0.991 ng/mL
- concentration at 60 minutes ([1]; ip): 0.746 ng/mL
- concentration at 120 minutes ([1]; ip): 0.471 ng/mL
- concentration at 0 minutes ([1]; Oral): 0.3 ng/mL
- concentration at 15 minutes ([1]; Oral): 0.952 ng/mL
- concentration at 30 minutes ([1]; Oral): 1.02 ng/mL
- concentration at 60 minutes ([1]; Oral): 0.961 ng/mL
- concentration at 120 minutes ([1]; Oral): 0.853 ng/mL
- oral bioavailability (in words) [1]: readily bioavailable from the oral route
- time over which significant serum concentrations can be maintained [1]: at least 120 minutes

Structure (SMILES): c1coc(CNc2ncnc3[nH]cnc23)c1 [Kinetin, kinetin]
- FOLD AMPK ACTIVATION (OVER CONTROL) (activated AMPK; 0.1 microM): 5.30 fold
- FOLD AMPK ACTIVATION (OVER CONTROL) (activated AMPK; 0.3 microM): 8.12 fold
- FOLD AMPK ACTIVATION (OVER CONTROL) (activated AMPK; 0.8 microM): 3.60 fold and 2.40 fold
- FOLD AMPK ACTIVATION (OVER CONTROL) (activated AMPK; 1.0 microM): 19.50 fold
- FOLD AMPK ACTIVATION (OVER CONTROL) (activated AMPK; 2.0 microM): 2.70 fold
- FOLD AMPK ACTIVATION (OVER CONTROL) (activated AMPK; 3.0 microM): 14.50 fold
- FOLD AMPK ACTIVATION (OVER CONTROL) (activated AMPK; 10.0 microM): 12.80 fold
- Glucose uptake, Mean ([2]; 0.5 uM): 0.99
- Glucose uptake, Mean ([2]; 1 uM (Table 6)): 1.23
- Glucose uptake, Raw ([2]; 1 uM (Table 6)): 1.54 and 0.95 and 1.33 and 1.10 and 1.23
- Glucose uptake, Mean ([2]; 2 uM): 0.70
- Glucose uptake, Raw ([2]; 2 uM): 0.57 and 0.90 and 0.64 and 0.81
- FOLD AKT ACTIVATION (OVER CONTROL) (activated Akt; 0.3 microM): 5.08 fold
- FOLD AKT ACTIVATION (OVER CONTROL) (activated Akt; 0.8 microM): 3.17 fold
- FOLD AKT ACTIVATION (OVER CONTROL) (activated Akt; 0.9 microM): 3.81 fold
- FOLD AKT ACTIVATION (OVER CONTROL) (activated Akt; 2.0 microM): 3.35 fold
- FOLD AKT ACTIVATION (OVER CONTROL) (activated Akt; 2.7 microM): 3.21 fold
- FOLD AKT ACTIVATION (OVER CONTROL) (activated Akt; 5.0 microM): 2.07 fold
- FOLD AKT ACTIVATION (OVER CONTROL) (activated Akt; 8.1 microM): 0.24 fold
- effect on GLUT-4 protein level (in words) (GLUT-4): potently increase GLUT-4 protein level
- FOLD CHANGE IN GLUT-4 LEVEL (OVER CONTROL) (GLUT-4; 0.3 microM): 3.45 fold and 3.95 fold
- FOLD CHANGE IN GLUT-4 LEVEL (OVER CONTROL) (GLUT-4; 0.8 microM): 3.46 fold and 2.36 fold
- FOLD CHANGE IN GLUT-4 LEVEL (OVER CONTROL) (GLUT-4; 0.9 microM): 4.00 fold
- FOLD CHANGE IN GLUT-4 LEVEL (OVER CONTROL) (GLUT-4; 2.0 microM): 1.88 fold
- FOLD CHANGE IN GLUT-4 LEVEL (OVER CONTROL) (GLUT-4; 2.7 microM): 3.88 fold
- FOLD CHANGE IN GLUT-4 LEVEL (OVER CONTROL) (GLUT-4; 8.1 microM): 1.11 fold
- effect on glucose uptake in muscle cells in vitro (in words) (muscle cells): potently enhance glucose uptake in muscle cells in vitro
- AVERAGE (N = 3) fluorescence of fluorescent glucose in the cells (muscle cells; [3]): 88.6 +/− 0.9
- FOLD CHANGE IN TOTAL GLUCOSE UPTAKE (OVER CONTROL) (muscle cells; [3]): 1.88 fold
- AVERAGE (N = 3) fluorescence of fluorescent glucose in the cells (muscle cells; [4]): 86.0 +/− 0.7
- FOLD CHANGE IN TOTAL GLUCOSE UPTAKE (OVER CONTROL) (muscle cells; [4]): 2.97 fold
- AVERAGE (N = 3) fluorescence of fluorescent glucose in the cells (muscle cells; [5]): 103.3 +/− 2.1
- FOLD CHANGE IN TOTAL GLUCOSE UPTAKE (OVER CONTROL) (muscle cells; [5]): 2.19 fold
- AVERAGE (N = 3) fluorescence of fluorescent glucose in the cells (muscle cells; [6]): 110.6 +/− 2.3
- FOLD CHANGE IN TOTAL GLUCOSE UPTAKE (OVER CONTROL) (muscle cells; [6]): 3.82 fold
- AVERAGE (N = 3) fluorescence of fluorescent glucose in the cells (muscle cells; [7]): 102.6 +/− 4.7
- FOLD CHANGE IN TOTAL GLUCOSE UPTAKE (OVER CONTROL) (muscle cells; [7]): 2.18 fold
- AVERAGE (N = 3) fluorescence of fluorescent glucose in the cells (muscle cells; [8]): 56.6 +/− 1.4
- FOLD CHANGE IN TOTAL GLUCOSE UPTAKE (OVER CONTROL) (muscle cells; [8]): 1.95 fold
